Here are results for twelve molecules from patent US20110021531A1, “OXAZOLE DERIVATIVES USEFUL AS INHIBITORS OF FAAH” (priority 2009, published 2011).

One may read the IC50 as the concentration at which inhibition is half-maximal.

Assay [1] has as its target T1, human FAAH (Fatty Acid Amide Hydrolase) (Homo sapiens, UniProt O00519).
T1 construct: The full length FAAH was subcloned into the mammalian expression vector, pcDEF.neo
T1 sequence (O00519 1-579): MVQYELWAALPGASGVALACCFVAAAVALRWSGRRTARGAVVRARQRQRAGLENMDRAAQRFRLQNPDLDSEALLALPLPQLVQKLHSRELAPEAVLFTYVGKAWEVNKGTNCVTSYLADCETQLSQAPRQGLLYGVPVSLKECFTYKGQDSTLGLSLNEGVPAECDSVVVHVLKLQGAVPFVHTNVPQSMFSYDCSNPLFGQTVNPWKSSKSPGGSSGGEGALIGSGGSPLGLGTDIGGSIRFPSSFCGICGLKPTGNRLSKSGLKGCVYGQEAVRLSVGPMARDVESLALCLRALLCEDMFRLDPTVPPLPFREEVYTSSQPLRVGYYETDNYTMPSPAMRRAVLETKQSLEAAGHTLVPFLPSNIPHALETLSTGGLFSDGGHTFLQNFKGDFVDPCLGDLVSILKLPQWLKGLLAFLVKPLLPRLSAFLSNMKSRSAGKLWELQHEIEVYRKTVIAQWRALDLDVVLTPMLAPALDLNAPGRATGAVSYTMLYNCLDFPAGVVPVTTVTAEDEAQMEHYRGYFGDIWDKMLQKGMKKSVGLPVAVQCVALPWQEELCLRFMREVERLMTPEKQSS
The assay can be described thus: FAAH enzyme assay on lysate of CHO cells expressing human FAAH. The assay is classed as biochemical. From the text:
(§1) To assist in assay development stable cell lines for human, murine and rat full length FAAH were developed. Human FAAH cDNA (Accession No: NM_001441.1) was purchased from Origene (Rockville, Md.). The full length FAAH was subcloned into the mammalian expression vector, pcDEF.neo, using XbaI and EcoRI restriction sites and used for stable cell line generation.
CHO cells expressing FAAH were used to prepare either crude cell lysate or microsome fractions. To harvest cells, tissue culture media was decanted, the monolayer washed three times with Ca^++Mg^++ free PBS and cells recovered after […] in enzyme free dissociation media (Millipore Corp, Billerica, Mass.). Cells were collected by centrifuging at 2000 rpm for 15 min. and the cell pellet re-suspended with 50 mM HEPES (pH 7.4) containing 1 mM EDTA and the protease inhibitors aprotinin (1 mg/ml) and leupeptin (100 μM). The suspension was sonicated at 4° C. and the cell lysate recovered after centrifuging at 12,000×g (14,600 rpm, SS34 rotor) for 20 min at 4° C. to form a crude pellet of cell debris, nuclei, peroxisomes, lysosomes, and mitochondria; the supernatant or cell lysate was used for FAAH enzyme assay. In some cases, microsomes fractions enriched in FAAH were prepared by centrifuging the cell lysate further at 27,000 rpm (100,000×g) in SW28 rotor for 50 minutes at 4° C. The pellet containing FAAH-enriched microsomes was re-suspend in 50 mM HEPES, (pH 7.4) 1 mM EDTA, and any remaining DNA sheared by passage of material through a 23 gauge needle and aliquots of enzyme were store at −80° C. prior to use.
(§2) (American Radiolabeled Chemicals; 1 mCi/ml) with FAAH (Life Sciences (1995), 56, 1999-2005 and Journal of Pharmacology and Experimented Therapeutics (1997), 283, 729-734), Analytical. Biochemistry (2003), 318, 270-5. In addition, routine assays were performed monitoring hydrolysis of arachidonyl-7-amino-4-methylcoumarin amide (AAMCA) by following increase in fluorescence upon release of 7-amino 4-methyl coumarin (λEX=355 nm, (λEM=460 nm). Analytical. Biochemistry (2005). 343, 143-51
(§3) Assays are performed on either cell lysate or microsome fractions prepared as described or in whole cell format employing either the fluorescent substrate AAMCA (Cayman chemical, Ann Arbor, Mich.,) or ^3H-anandmaide ([ETHANOLAMINE-1-3H]American Radiolabeled Chemicals; 1 mCi/ml). The cell lysate or microsome assay is performed in Costar black wall, clear bottom plates by adding FAAH_CF10 (whole cell, cell lysate or microsome) in assay buffer (50 mM Phosphate, pH 8.0, 1 mM EDTA, 200 mM KCl, 0.2% glycerol, 0.1% fatty acid free BSA) to each well, followed by either DMSO or compound and allowed to incubate at 22-25° C. for fifteen minutes. AAMCA substrate was used to achieve a final concentration of 1 μM and reaction allowed to proceed at room temperature for 1-3 hours. Fluorescent release as a measure of FAAH activity was monitored by reading the plate in a CytoFluor Multiplate Reader (Ex: […]). Whole cell assay is conducted with cells harvested after rinsing tissue culture flasks three times with Ca^++Mg^++ free PBS, incubating for 10 min in Enzyme free dissociation media and centrifuging for 5 minutes at 1,000 rpm in table top centrifuge. Cells are resuspended in assay buffer at desired cell number in (4×10^4 cells/assay in 96-well format; 1×10^4 cells/assay in 384-well format) and assayed as described.
Alternatively, assays are performed using anandamide [ethanolamine 1-^3H] (specific activity of 10 Ci/mmol) diluted with cold anandamide to achieve a final assay concentration of 1 μM anandamide (˜50,000 cpm). Enzyme (CHO cell lysate, brain or liver homogenate) is incubated in assay buffer (50 mM Phosphate, pH 8.0, 1 mM EDTA, 200 mM KCl, 0.2% glycerol, 0.1% fatty acid free BSA) with inhibitor at 25° C. for 30 minutes. The reaction was terminated by addition of 2 volumes of chloroform:methanol (1:1) and mixed by vortexing. […]

Assay [2] has as its target T2, rat FAAH (Fatty Acid Amide Hydrolase) (Rattus norvegicus, UniProt P97612).
T2 sequence (P97612 1-579): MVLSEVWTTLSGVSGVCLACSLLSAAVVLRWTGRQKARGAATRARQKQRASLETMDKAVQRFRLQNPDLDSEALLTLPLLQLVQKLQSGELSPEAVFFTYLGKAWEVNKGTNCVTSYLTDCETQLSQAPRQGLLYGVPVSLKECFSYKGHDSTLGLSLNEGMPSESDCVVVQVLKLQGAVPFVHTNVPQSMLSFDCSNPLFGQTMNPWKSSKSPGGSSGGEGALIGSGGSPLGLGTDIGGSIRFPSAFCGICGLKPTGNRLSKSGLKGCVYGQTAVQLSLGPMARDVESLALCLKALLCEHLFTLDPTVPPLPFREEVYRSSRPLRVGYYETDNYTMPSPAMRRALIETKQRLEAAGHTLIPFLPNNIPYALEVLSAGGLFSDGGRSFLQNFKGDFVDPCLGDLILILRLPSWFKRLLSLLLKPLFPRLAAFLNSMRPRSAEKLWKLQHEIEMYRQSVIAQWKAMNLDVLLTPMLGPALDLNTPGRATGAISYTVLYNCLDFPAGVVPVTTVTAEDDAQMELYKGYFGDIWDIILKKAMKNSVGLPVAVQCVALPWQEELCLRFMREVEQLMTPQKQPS
Briefly: FAAH whole cell assay, CHO cells expressing rat FAAH. The assay is classed as cell-based.
Description: as §1
(§4) Murine (accession number NM_010173) and Rat FAAH (accession number NM_024132) was amplified by reverse transcriptase polymerase chain reaction (RT-PCR) from brain cDNA (BD Biosciences, San Jose, Calif.) using primers 1 and 2 or primers 1 and 3 respectively (see Table). The resulting PCR product was ligated into pCR4 TOPO and DNA sequence confirmed. The full length murine FAAH was subcloned into the mammalian expression vector, pcDEFneo using either EcoRI (murine) or KpnI and EcoRI (rat) restriction sites. Chinese hamster ovary cells (CHO) were transfected following manufacturers protocol (AMAXA). Forty eight hours post transfection, cells were trypsinized and transferred to 96 well plates in Iscove's DMEM media supplemented with 2 mM Glutamine, 10% fetal calf serum, 1 mg/ml geneticin and HT Supplement (0.1 mM sodium hypoxanthine, 0.016 mM thymidine) in order to isolate single clones. Following selection in geneticin, individual clones were selected and FAAH activity was assessed using a whole cell fluorescent anandamide assay, modified from Ramarao et al (2005). Following removal of tissue culture media cells were dislodged following addition of Cellstripper (Mediatech, Inc. Manassas, Va.) and transferred to 96 well black clear bottom assay plate, centrifuged at 1,000 rpm for 3 mins and media removed and replaced with assay buffer (50 mM Iris pH8.0, 1 mM EDTA, 0.1% fatty acid free BSA). The reaction was initiated by addition of fluorescent substrate, AMC Arachidonoyl Amide (Cayman Chemical, Ann Arbor, Mich.) to 1 μM and reaction allowed to proceed for 2 hours at room temperature. Release of fluorescence was monitored in a CytoFluor Multiplate Reader. Cells expressing the highest amount of FAAH activity were selected for study with FAAH inhibitors.
as §2, §3

Assay [3] concerns the target T1, human FAAH (Fatty Acid Amide Hydrolase). Briefly: FAAH whole cell assay, CHO cells expressing human FAAH. The assay is classed as cell-based.
Description: as §1, §4, §2, §3

Consider `COc1ccc(Sc2oc(-c3ccc(F)cc3)nc2-c2ccc(C(C)(C)O)nc2)c(F)c1` [Ex 65], for which the results for the IC50 in assay [1], in assay [2] and in assay [3] were 27 nM, 21 nM and 29 nM, respectively.
`CC(C)(O)c1ccc(-c2nc(-c3ccc(OC(F)(F)F)cc3)oc2Sc2ccc(Cl)cn2)cn1` [Ex 68]: the IC50 in assay [1] is 15 nM; in assay [2], 83 nM; in assay [3], 100 nM.
The matching figures for `Fc1ccc(-c2nc(-c3ccc(-c4ncon4)nc3)c(Sc3ccc(Cl)cn3)o2)cc1` [Ex 71, 5-Chloro-2-({2-(4-fluorophenyl)-4-[6-(1,2,4-oxadiazol-3-yl)pyridin-3-yl]-1,3-oxazol-5-yl}sulfanyl)pyridine]: 10 nM, 14 nM and 30 nM.
On to `CC(C)(O)c1ncc(-c2nc(-c3ccc(F)cc3)oc2Sc2ccc(Cl)cn2)cn1` [Ex 74, 2-(5-{5-[(5-Chloropyridin-2-yl)sulfanyl]-2-(4-fluorophenyl)-1,3-oxazol-4-yl}pyrimidin-2-yl)propan-2-ol], for which the IC50 in assay [1] is 8 nM; in assay [2], 34 nM; in assay [3] it was 37 nM.
As for `CS(=O)(=O)c1ccc(-c2nc(-c3ccc(F)cc3)oc2Sc2ccc(Cl)cn2)cc1` [Ex 78, 5-Chloro-2-({2-(4-fluorophenyl)-4-[4-(methylsulfonyl)phenyl]-1,3-oxazol-5-yl}sulfanyl)pyridine], the 50% inhibitory concentration (IC50) in assay [1] was 28 nM; in assay [2], 39 nM; in assay [3] it was 69 nM.
As to `CC(C)(O)c1ccc(-c2nc(-c3ccc(F)cc3)oc2Sc2ccc(Cl)cn2)cc1` [Ex 80, 2-(4-{5-[(5-Chloropyridin-2-yl)sulfanyl]-2-(4-fluorophenyl)-1,3-oxazol-4-yl}phenyl)propan-2-ol], the IC50 in assay [1] stood at 35 nM; in assay [2], 25 nM; in assay [3] it was 67 nM.
`CC(C)(O)c1ccc(-c2nc(C3CC3)oc2Sc2ccc(Cl)cn2)cn1` [Ex 90, 2-(5-{5-[(5-Chloropyridin-2-yl)sulfanyl]-2-cyclopropyl-1,3-oxazol-4-yl}pyridin-2-yl)propan-2-ol]: the IC50 in assay [1] came to 46 nM; in assay [2], 247 nM; in assay [3], 1000 nM.
For `CC(C)(O)c1ccc(-c2nc(-c3ccc(F)cc3)oc2Sc2ccc(Cl)cn2)nn1` [Ex 96, 2-(6-{5-[(5-Chloropyridin-2-yl)sulfanyl]-2-(4-fluorophenyl)-1,3-oxazol-4-yl}pyridazin-3-yl)propan-2-ol], the results for the 50% inhibitory concentration (IC50) in assay [1], in assay [2] and in assay [3] were 17 nM, 63 nM and 133 nM, respectively.
For `CC(C)(O)c1cc(-c2nc(-c3ccc(F)cc3)oc2Sc2ccc(Cl)cn2)on1` [Ex 98, 2-(5-{5-[(5-Chloropyridin-2-yl)sulfanyl]-2-(4-fluorophenyl)-1,3-oxazol-4-yl}isoxazol-3-yl)propan-2-ol], the results for the IC50 in assay [1], in assay [2] and in assay [3] were 44 nM, 35 nM and 222 nM, respectively.
The matching figures for `CC(C)(O)c1csc(-c2nc(-c3ccc(F)cc3)oc2Sc2ccc(Cl)cn2)n1` [Ex 100, 2-(2-{5-[(5-Chloropyridin-2-yl)sulfanyl]-2-(4-fluorophenyl)-1,3-oxazol-4-yl}-1,3-thiazol-4-yl)propan-2-ol]: 161 nM, 39 nM and 337 nM.
For the molecule `CS(=O)(=O)c1ccc(-c2nc(-c3ccc(F)cc3)oc2Sc2ccc(Cl)cn2)cn1` [Ex 102, 5-Chloro-2-({2-(4-fluorophenyl)-4-[6-(methylsulfonyl)pyridin-3-yl]-1,3-oxazol-5-yl}sulfanyl)pyridine], the half-inhibitory concentration (IC50) in assay [1] was found to be 12 nM; in assay [2] it was 17 nM; in assay [3] it was 35 nM.
Turning to `CS(=O)(=O)c1ccc(-c2nc(-c3ccc(F)cc3)oc2Sc2ncc(Cl)cn2)cn1` [Ex 107, 5-Chloro-2-({2-(4-fluorophenyl)-4-[6-(methylsulfonyl)pyridin-3-yl]-1,3-oxazol-5-yl}sulfanyl)pyrimidine], the half-maximal inhibitory concentration (IC50) in assay [1] was 24 nM; in assay [2], 11 nM; in assay [3], 91 nM.
